According to patent publication US8998396B2, “Treatment liquid for liquid jetting device, and cartridge containing the same” (Ricoh Company, Ltd., priority 2009, dated 2015):

Assay: Surfactant solubility in the main solvent, judged visually
Assay type: physicochemical
Details: main solvent: water, glycerin and 1,3-butylene glycol
Source text: The surfactant was solved into the main solvent and the solubility thereof was judged visually.
A: Solved completely (transparent and colorless)

Row | SMILES | Solubility in the main solvent (in words)
1 | CCCCCCCCN1CCCC1=O [LP-100, N-Octyl-2-Pyrrolidone] | solves in the main solvent
2 | CCCCCCCCCCCCN1CCCC1=O [LP-300, N-Dodecyl-2-Pyrrolidone] | cannot solve in the main solvent
